Reference: the NIST ThermoML archive (doi:10.1021/je0504358)

Details: Liquid, Twin ebulliometer

O=C1C=CCCC1 [2-cyclohexen-1-one]
Details | vapor or sublimation pressure [kPa]
350.4 K | 4.147
353.66 K | 4.786
357.56 K | 5.662
361.48 K | 6.709
366.16 K | 8.095
370.32 K | 9.581
374.97 K | 11.46
379 K | 13.31
380.5 K | 14.06
386.63 K | 17.53
388.4 K | 18.68
391.77 K | 20.95
397.16 K | 25.2
404.53 K | 32.03
407.95 K | 35.56
410.86 K | 39.01
424.23 K | 57.64
445 K | 100.4

CC1CCCCC1=O (stereo unspecified) [2-methylcyclohexanone]
Details | vapor or sublimation pressure [kPa]
338.76 K | 3.333
342.2 K | 3.912
348.85 K | 5.267
350.96 K | 5.763
353.34 K | 6.401
355.93 K | 7.129
358.53 K | 7.941
360.73 K | 8.678
363.09 K | 9.543
366.66 K | 10.98
369.65 K | 12.3
372.7 K | 13.79
376.36 K | 15.79
381.72 K | 19.12
384.91 K | 21.37
389.42 K | 24.9
394.59 K | 29.53
398.32 K | 33.29
399.98 K | 35.05
408.17 K | 45.03
411.64 K | 49.98
414 K | 53.52
418.28 K | 60.46
436.94 K | 99.71

CCCCCC=O [hexanal]
Details | vapor or sublimation pressure [kPa]
322.27 K | 5.184
325.43 K | 6.001
327.84 K | 6.711
330.22 K | 7.51
333.56 K | 8.713
338.89 K | 10.99
342.12 K | 12.59
347.22 K | 15.55
353.44 K | 19.8
360.11 K | 25.45
366.28 K | 31.91
371.95 K | 38.88
377.98 K | 47.56
402.17 K | 99.72
